Reference: patent US20240279204A1, “NOVEL DIPHENAZINE COMPOUND, AND USE THEREOF FOR PREVENTING OR TREATING CANCER OR NEUROINFLAMMATORY DISEASES” (KOREA INSTITUTE OF OCEAN SCIENCE & TECHNOLOGY, priority 2021, published 2024)
Where two headings read alike, the source gives them in different places.

Key:
NUGC-3 (stomach) = assay: SRB cytotoxicity assay, NUGC-3; assay type: cell-based, human; settings: for GI50: SRB assay, 48 hours
Procedure: (§1) A cytotoxicity test was evaluated using sulforhodamine B (SRB) assay on six human cancer cell lines. Human cancer cell lines, ACHN (kidney), NCI-H23 (lung), PC-3 (prostate), NUGC-3 (stomach), MDA-MB-231 (breast), and HCT-15 (colon) were purchased from American Type Culture Collection (ATCC). Cells were cultured in a RPMI 1640 medium added with 10% fetal bovine serum (FBS) at 37° C. in a 5% CO2 incubator. The cells (8×10^3 cells/well) were dispensed into a 96-well plate, cultured for one day, and then treated with Compounds 1-8 dissolved in 0.1% DMSO, (R)-(6-(1-((2-aminobenzoyl)oxy)ethyl)phenazine-1-carboxylic acid as Compound 9, and adriamycin as a positive control group. The cells were cultured for 48 hours, fixed with 50% trichloroacetic acid ([…]) and stained with 0.4% surfohodamine B dissolved in 1% acetic acid. Non-stained cells were removed by washing with 1% acetic acid, and cells bound to a protein were extracted with 10 mM Tris base (pH 10.5) to measure the optical density. Absorbance was measured at 540 nm using a microplate reader, and GI50 values were calculated using GraphPad Prism 4.0.

HCT-15 (colon) = assay: SRB cytotoxicity assay, HCT-15; assay type: cell-based, human
Procedure: as §1

MDA-MB-231 (breast) = assay: SRB cytotoxicity assay, MDA-MB-231; assay type: cell-based, human
Procedure: as §1

NCI-H23 (lung) = assay: SRB cytotoxicity assay, NCI-H23; assay type: cell-based, human
Procedure: as §1

PC-3 (prostate) = assay: SRB cytotoxicity assay, PC-3; assay type: cell-based, human; settings: 48 hours
Procedure: as §1

ACHN (kidney) = assay: SRB cytotoxicity assay, ACHN; assay type: cell-based, human; settings: 48 hours
Procedure: as §1

[1] = system: LPS-induced BV-2 microglia; assay: NO generation inhibition in LPS-induced BV-2 microglia (Griess reagent); assay type: cell-based; settings: compound 1 hour then LPS 200 ng/mL for 24 hours, nitrite by Griess reagent, read-out: IC50 (μM), NO generation inhibitory activity by activated microglia
Procedure: (§2) NO generation to confirm anti-brain neuroinflammatory activity was evaluated by measuring a nitrite concentration in the medium using a Griess reagent, and the cell viability was evaluated using MTT assay. Briefly, BV-2 microglia were cultured in a Dulbecco's modified Eagle's medium (DMEM) supplemented with 5% heat-inactivated FBS and 50 µg/mL of penicillin-streptomycin in a 5% CO2 incubator at 37° C. A 96-well plate dispensed with pre-cultured cells (2.5×10^4 cells/mL) was treated with compounds at various concentrations (10, 20, 50, and 100 μM) for 1 hour, and treated with LPS (200 ng/mL) and cultured for 24 hours. The supernatant was mixed with a Griess reagent and cultured at room temperature for 10 minutes. The nitrite concentration was determined using a sodium nitrite standard solution prepared in a cell culture medium. Absorbance was measured at a wavelength of 540 nm with a microplate reader. To evaluate the cell viability, the 96-well plate dispensed with cells (2.5×10^4 cells/mL) was treated with compounds at various concentrations (10, 20, 50, and 100 μM) for 1 hour, and treated with LPS (200 ng/mL) and cultured for 24 hours. An MTT solution (0.5 mg/mL) was added to each well and cultured at 37° C. for 4 hours. The supernatant was removed, and the formed formazan crystals were dissolved in DMSO. The absorbance was measured at 550 nm using a microplate reader. To determine the IC50 value of Compound 6, NO generation and MTT assay were performed in the same manner as described above, only with different concentrations (0.25, 0.5, and 1 μM) (Table 4). The experiment was repeated 3 times.

BV-2 microglia = assay: Cell viability of BV-2 microglia (MTT assay); assay type: cell-based; settings: LPS 200 ng/mL, 24 hours
Procedure: as §2, with “To determine the IC50 value of Compound 6, NO generation and MTT assay were performed in the same manner as described above, only with different concentrations (0.25, 0.5, and 1 μM) (Table 4). The experiment was repeated 3 times.” left out

[2] = Homo sapiens, NUGC-3, read-out: GI50, NUGC-3
[3] = Homo sapiens, MDA-MB-231, 48 hours
[4] = Homo sapiens, NCI-H23, 48 hours

SMILES | IC50 ([1]; Mus musculus) | GI50 (NUGC-3 (stomach); [2]) | GI50 (HCT-15 (colon); Homo sapiens, HCT-15, 48 hours) | GI50 (MDA-MB-231 (breast); [3]) | GI50 (NCI-H23 (lung); [4]) | GI50 (PC-3 (prostate); Homo sapiens) | GI50 (ACHN (kidney); Homo sapiens, ACHN) | GI50 (NUGC-3 (stomach); Homo sapiens, NUGC-3, read-out: GI50 value, gastric cancer cells NUGC-3) | cytotoxicity stronger than Adriamycin, NUGC-3 (NUGC-3 (stomach); ratio of GI50 versus Adriamycin) | cytotoxicity in cell viability test (BV-2 microglia) | GI50 (NUGC-3 (stomach); read-out: GI50, NUGC-3) | IC50 [1] | GI50 (HCT-15 (colon); 48 hours) | GI50 (MDA-MB-231 (breast); 48 hours) | GI50 (NCI-H23 (lung); 48 hours) | GI50 (PC-3 (prostate)) | GI50 (ACHN (kidney))
COc1cccc2c1C(=O)c1c(O)c3c(c(O)c1C2=O)C[C@@](O)(C(=O)CO)C[C@@H]3O[C@H]1C[C@H](N)[C@H](O)[C@H](C)O1 [ADR, Adriamycin, reference compound] |  | 0.15 µM | 0.17 µM | 0.15 µM | 0.16 µM | 0.16 µM | 0.17 µM |  |  |  |  |  |  |  |  |  | 
C[C@H](c1cccc2nc3c(C(=O)O)cccc3nc12)c1ccc(C(=O)O)c2nc3cccc([C@@H](C)O)c3nc12 [Compound 1, 4-((R)-1-(6-carboxyphenazin-1-yl)ethyl)-6-((R)-1-hydroxyethyl)phenazine-1-carboxylic acid] | 166 µM | > 10 µM | > 10 µM | > 10 µM | > 10 µM | > 10 µM | > 10 µM |  |  |  |  |  |  |  |  |  | 
CC(=O)c1cccc2nc3c(C(=O)O)ccc([C@H](C)c4cccc5nc6c(C(=O)O)cccc6nc45)c3nc12 [Compound 3, (R)-6-acetyl-4-(1-(6-carboxyphenazin-1-yl)ethyl)phenazine-1-carboxylic acid] | 34.7 µM | > 10 µM | > 10 µM | > 10 µM | > 10 µM | > 10 µM | > 10 µM |  |  |  |  |  |  |  |  |  | 
C[C@@H](O)c1cccc2nc3c(C(=O)O[C@H](C)c4cccc5nc6c(C(=O)O)cccc6nc45)cccc3nc12 [Compound 6, 6-((R)-1-((6-((R)-1-hydroxyethyl)phenazine-1-carbonyl)oxy)ethyl)phenazine-1-carboxylic acid] | 0.3 µM | 0.0077 µM | 0.0096 µM | 0.0096 µM | 0.0096 µM | 0.0096 µM | 0.0135 µM | 0.0077 µM | 19 times | strong cytotoxicity up to a concentration of 1 μM |  |  |  |  |  |  | 
CC(=O)c1cccc2nc3c(C(=O)O[C@H](C)c4cccc5nc6c(C(=O)O)cccc6nc45)cccc3nc12 [Compound 7, (R)-6-(1-((6-acetylphenazine-1-carbonyl)oxy)ethyl)phenazine-1-carboxylic acid] |  | 0.0349 µM | 0.0601 µM | 0.0523 µM | 0.0426 µM | 0.0465 µM | 0.0717 µM |  |  |  |  |  |  |  |  |  | 
C[C@@H](O)c1cccc2nc3c(C(=O)O)cccc3nc12 [Compound 8, (R)-Saphenic acid] |  |  |  |  |  |  |  |  |  |  | > 10 µM | 16.3 µM | > 10 µM | > 10 µM | > 10 µM | > 10 µM | > 10 µM
C[C@@H](OC(=O)c1ccccc1N)c1cccc2nc3c(C(=O)O)cccc3nc12 [Compound 9] |  |  |  |  |  |  |  |  |  |  | > 10 µM | 23.5 µM | > 10 µM | > 10 µM | > 10 µM | > 10 µM | > 10 µM

More lines, main results first:

IC50 ([1]; Mus musculus) | SMILES | GI50 (NUGC-3 (stomach); [2]) | GI50 (HCT-15 (colon); Homo sapiens, HCT-15, 48 hours) | GI50 (MDA-MB-231 (breast); [3]) | GI50 (NCI-H23 (lung); [4]) | GI50 (PC-3 (prostate); Homo sapiens) | GI50 (ACHN (kidney); Homo sapiens, ACHN) | GI50 (NUGC-3 (stomach); Homo sapiens, NUGC-3, read-out: GI50 value, gastric cancer cells NUGC-3) | cytotoxicity stronger than Adriamycin, NUGC-3 (NUGC-3 (stomach); ratio of GI50 versus Adriamycin) | cytotoxicity in cell viability test (BV-2 microglia) | GI50 (NUGC-3 (stomach); read-out: GI50, NUGC-3) | IC50 [1] | GI50 (HCT-15 (colon); 48 hours) | GI50 (MDA-MB-231 (breast); 48 hours) | GI50 (NCI-H23 (lung); 48 hours) | GI50 (PC-3 (prostate)) | GI50 (ACHN (kidney))
90.2 µM | C[C@@H](c1cccc2nc3c(C(=O)O)cccc3nc12)c1ccc(C(=O)O)c2nc3cccc([C@@H](C)O)c3nc12 [Compound 2, 4-((S)-1-(6-carboxyphenazin-1-yl)ethyl)-6-((R)-1-hydroxyethyl)phenazine-1-carboxylic acid] | > 10 µM | > 10 µM | > 10 µM | > 10 µM | > 10 µM | > 10 µM |  |  |  |  |  |  |  |  |  | 
126 µM | C[C@@H](c1cc(C(=O)O)c2nc3cccc([C@@H](C)O)c3nc2c1)c1cccc2nc3c(C(=O)O)cccc3nc12 [Compound 4, 3-((S)-1-(6-carboxyphenazin-1-yl)ethyl)-6-((R)-1-hydroxyethyl)phenazine-1-carboxylic acid] | > 10 µM | > 10 µM | > 10 µM | > 10 µM | > 10 µM | > 10 µM |  |  |  |  |  |  |  |  |  | 
27.4 µM | C[C@H](c1cc([C@@H](C)O)c2nc3cccc(C(=O)O)c3nc2c1)c1cccc2nc3c(C(=O)O)cccc3nc12 [Compound 5, 8-((R)-1-(6-carboxyphenazin-1-yl)ethyl)-6-((R)-1-hydroxyethyl)phenazine-1-carboxylic acid] | > 10 µM | > 10 µM | > 10 µM | > 10 µM | > 10 µM | > 10 µM |  |  |  |  |  |  |  |  |  | 
